Data on 65 compounds can be found in PubChem BioAssay AID816 (SRMLSC, 2007).

Activity calls are given as the source filed them. The rule behind the calls is not given here.

This experiment relates to S. cerevisiae GAL1 promoter reporter activation counterscreen. Put plainly: yeast Gal1p promoter activation – S. cerevisiae, artefact control for yeast lifespan extension project (AID 816).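 Note: yeast growth read after 24 h of incubation with compounds.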
On to `CC(C)c1nnc(NC(=O)c2c(O)c3cccc4c3n(c2=O)CCC4)s1`, for which the EC50 is > 40 µM (inactive).

Consider `O=C(CCc1ccccc1)NCCCN1CCOCC1`, for which the EC50 was > 40 µM (inactive).

On to `O=C(O)Cc1ccc(N=Cc2c(O)ccc3ccccc23)cc1`, for which the EC50 was > 40 µM (inactive).

Take `CCCCn1c(/N=C/c2ccccc2NS(=O)(=O)c2ccc(C)cc2)nc2ccccc21`: the EC50 was > 40 µM (inactive).

As to `CCSc1nnc(NC(=O)C2(C)Cc3ccccc3C(=O)O2)s1` (stereo not given), the EC50 is > 40 µM (inactive).

For the compound `CC1=NN(c2ccc(C(F)(F)F)cn2)C(=O)C1`, the EC50 is > 40 µM (inactive).

For `O=c1c(Cl)c(NCCCO)cnn1-c1nc2ccccc2[nH]1`, the EC50 was > 40 µM (inactive).

Take `O=c1c2[nH]c3ccccc3c2ncn1Cc1ccco1`: the EC50 is > 40 µM (inactive).

As to `COc1ccc(C(=O)C(CN2CCOCC2)c2ccccc2)cc1` (stereo not given), the EC50 was > 40 µM (inactive).

For the compound `O=C(c1c[nH]c(C(=O)C(Cl)(Cl)Cl)c1)c1ccccc1Cl`, the EC50 was > 40 µM (inactive).

`C=CCn1c(C)cc(C(=O)COc2ncnc3sccc23)c1C`: the EC50 is > 40 µM (inactive).

With `O=C(Nc1ccc(Br)cn1)c1cccc(-c2cc3ccccc3oc2=O)c1`, the EC50 is > 40 µM (inactive).

As to `CCC1C/C(=C\c2cccnc2)C(=O)/C(=C/c2cccnc2)C1` (stereo not given), the EC50 is > 40 µM (inactive).

As for `CCOc1ccc(OCC(=O)c2c(O)c3ccccc3oc2=O)cc1`, the EC50 was > 40 µM (inactive).

Take `O=[N+]([O-])c1cc2oc3c(c2c(C=NCc2ccccc2)c1O)CCCC3`: the EC50 is > 40 µM (inactive).

Turning to `O=[N+]([O-])c1c(C(Cl)Cl)nn(-c2ccccc2)c1N1CCCC1`, the EC50 was > 40 µM (inactive).

With `CC(C)C(C(=O)O)N1C(=O)/C(=C/c2cccn2C)SC1=S` (stereo not given), the EC50 is > 40 µM (inactive).

In the case of `CCOC(=O)CS(=O)(=O)c1nc(-c2ccc(F)cc2)cc(C(F)(F)F)n1`, the EC50 is > 40 µM (inactive).

Take `COc1ccc(C(C)NC(=O)c2ccccc2)cc1` (stereo not given): the EC50 was > 40 µM (inactive).

As to `C=C(C(=O)c1ccccc1)C(C)CC(=O)c1ccccc1` (stereo not given), the EC50 is > 40 µM (inactive).

With `O=C(c1ccc(F)cc1)C(CN1CCOCC1)c1ccccc1` (stereo not given), the EC50 was > 40 µM (inactive).

`CCn1cc(C(=O)O)c(=O)c2ccc(C)nc21`: the EC50 is > 40 µM (inactive).

`Cc1ccc(C(=O)/C=C\C(=O)c2ccc(C)cc2)cc1`: the EC50 is > 40 µM (inactive).

As for `O=C(NC(=S)NNC(=O)c1ccc(Cl)cc1Cl)c1cccnc1`, the EC50 was > 40 µM (inactive).

With `C/C(=N\NC(=O)c1cccc(Cl)c1)C1C(=O)c2ccccc2C1=O`, the EC50 was > 40 µM (inactive).

As to `COc1cc(C(C[N+](=O)[O-])c2c(-c3ccccc3)cc3ccccn23)cc(OC)c1OC` (stereo not given), the EC50 was > 40 µM (inactive).

In the case of `Cn1c(=O)c2c(nc(Br)n2Cc2ccc3ccccc3c2)n(C)c1=O`, the EC50 is > 40 µM (inactive).

Consider `Oc1ccc2ccccc2c1C=Nc1ccc(N2CCOCC2)cc1`, for which the EC50 is > 40 µM (inactive).

On to `Nc1cccc2c1C(=O)N(C(=O)c1ccc(Cl)c(S(=O)(=O)N3CCCCCC3)c1)C2=O`, for which the EC50 was > 40 µM (inactive).

With `Cc1ccc(C(C2=C(O)CC(C)(C)CC2=O)C2C(=O)CC(C)(C)CC2=O)o1` (stereo not given), the EC50 is > 40 µM (inactive).

As to `CCCC(=Nc1ccccc1)C1=C(O)C(C(=O)OC)C(C)(C)CC1=O` (stereo not given), the EC50 was > 40 µM (inactive).

On to `CC(=NCCc1c(C)[nH]c2ccc(C)cc12)C1=C(O)CC(c2ccccc2)CC1=O` (stereo not given), for which the EC50 was > 40 µM (inactive).

For the compound `COc1ccccc1-c1c(C)oc2cc(OC(=O)c3ccco3)ccc2c1=O`, the EC50 is > 40 µM (inactive).

Turning to `Cc1ccc(C(=O)C2C(=O)c3ccccc3C2=O)cc1`, the EC50 is > 40 µM (inactive).

On to `COc1ccc2c(=O)c3c(=O)n(Cc4ccco4)c(-c4ccco4)nc3oc2c1`, for which the EC50 was > 40 µM (inactive).

Take `CC1(C)CC(=O)C2=C(C1)OC1=C(C(=O)CC(C)(C)C1)C2c1ccc(O)cc1O`: the EC50 is > 40 µM (inactive).

Turning to `CC1(C)CC(=O)c2sc(NS(C)(=O)=O)nc2C1`, the EC50 is > 40 µM (inactive).

In the case of `CC(=O)Nc1nc(C)c(Oc2ccccc2)c(=O)[nH]1`, the EC50 was > 40 µM (inactive).

For the compound `Cn1c(=O)c(=O)n(C)c2cc(S(=O)(=O)N3CCN(Cc4ccccc4)CC3)ccc21`, the EC50 is > 40 µM (inactive).

In the case of `Cc1[nH]n(-c2ccccc2)c(=O)c1N=Nc1nccs1`, the EC50 is > 40 µM (inactive).

Consider `CCCCC(=Nc1ccccc1OC)C1=C(O)CC(c2ccccc2)CC1=O` (stereo not given), for which the EC50 is > 40 µM (inactive).

As to `CCc1oc2ccccc2c1C(=O)CCN1CCCCC1`, the EC50 was > 40 µM (inactive).

On to `CC(=O)Nc1ccc(C(=O)CSc2nnc(-c3ccc(O)cc3)n2CC2CCCO2)cc1` (stereo not given), for which the EC50 is > 40 µM (inactive).

For the compound `O=C(c1cnn2c(C(F)F)cc(C3CC3)nc12)N1CCCC1`, the EC50 is > 40 µM (inactive).

As to `CCn1c(/C=N/c2nc3ccccc3n2C)nc2ccccc21`, the EC50 was > 40 µM (inactive).

`O=C1CC(c2ccccc2)CC(O)=C1C=NCCN1CCNCC1` (stereo not given): the EC50 is > 40 µM (inactive).

As to `O=C(c1ccccc1)C(CN1CCCC1)c1ccccc1` (stereo not given), the EC50 is > 40 µM (inactive).

In the case of `CCCC(=O)C1C(=O)CC(CC(C)SCC)CC1=O` (stereo not given), the EC50 was > 40 µM (inactive).

With `CCCCC(=O)Nc1ccc(C(=O)NNC(=S)NC(=O)c2cccs2)cc1`, the EC50 was > 40 µM (inactive).

As for `CCCN1C(=O)/C(=C/c2ccncc2)SC1=S`, the EC50 is > 40 µM (inactive).

For `CC1CCc2cc(F)cc3c(O)c(C(=O)NCc4ccco4)c(=O)n1c23` (stereo not given), the EC50 was > 40 µM (inactive).

For the compound `O=C(NNC1=Nc2cccc3cccc1c23)c1ccccc1Br`, the EC50 was > 40 µM (inactive).

`Cc1cccc(NC(=O)c2c(O)c3cccc4c3n(c2=O)CCC4)n1`: the EC50 was > 40 µM (inactive).

Take `O=C1NC(=O)N(CCC2=CCCCC2)C(=O)/C1=C\c1cccs1`: the EC50 was > 40 µM (inactive).

For the compound `C/C(=N\NC(=O)c1cccnc1)c1c(O)cc(C)oc1=O`, the EC50 was > 40 µM (inactive).

Regarding `CCCC(=O)Nc1ccc(C(=O)NNC(=S)NC(=O)c2cccs2)cc1`, the EC50 is > 40 µM (inactive).

Consider `CC(=O)c1c(C)[nH]c(C(=O)OC2CCCCC2=O)c1C` (stereo not given), for which the EC50 is > 40 µM (inactive).

Take `CCCCCC1CC1C(=O)N/N=C/c1ccc(N(C)C)cc1` (stereo not given): the EC50 was > 40 µM (inactive).

As for `CCOC(=O)CN1C(=O)N[C@H](c2ccc(Br)cc2)C(C(C)=O)=C1C`, the EC50 was > 40 µM (inactive).

As to `O=C1C=CC2C(c3ccc4c(c3)OCO4)CC1N2Cc1ccccc1` (stereo not given), the EC50 is > 40 µM (inactive).

Consider `CCCCCn1c(=O)c(C(=O)NCc2ccccn2)c(O)c2ccccc21`, for which the EC50 was > 40 µM (inactive).

With `CC(=Nc1ccc2c(c1)nc(CO)n2C)C1=C(O)CC(C)(C)CC1=O`, the EC50 was > 40 µM (inactive).

In the case of `COc1ccc(/C=N/NC(=O)c2csc(-n3nc(C)cc3C(F)(F)F)n2)cc1`, the EC50 was > 40 µM (inactive).

Turning to `O=C1C(C2=C(O)c3ccccc3C2=O)=Nc2ccccc21`, the EC50 is > 40 µM (inactive).

As to `C[C@]12CC[C@@H](O)C[C@@H]1CC[C@@H]1[C@@H]2CC[C@]2(C)[C@@H](O)CC[C@@H]12`, the EC50 is > 40 µM (inactive).

The term EC50 denotes the concentration giving half of the maximal effect.
